Target: T1, Daphnia Sir2 (Daphnia pulicaria, UniProt A0A0U3BSS1)
T1 construct: full-length ORF, N-terminal FLAG tag, pcDNA3.1-, in vitro translated in rabbit reticulocyte lysate (TNT T7), not purified; calculated mass 67 kD
T1 sequence (A0A0U3BSS1 1-601): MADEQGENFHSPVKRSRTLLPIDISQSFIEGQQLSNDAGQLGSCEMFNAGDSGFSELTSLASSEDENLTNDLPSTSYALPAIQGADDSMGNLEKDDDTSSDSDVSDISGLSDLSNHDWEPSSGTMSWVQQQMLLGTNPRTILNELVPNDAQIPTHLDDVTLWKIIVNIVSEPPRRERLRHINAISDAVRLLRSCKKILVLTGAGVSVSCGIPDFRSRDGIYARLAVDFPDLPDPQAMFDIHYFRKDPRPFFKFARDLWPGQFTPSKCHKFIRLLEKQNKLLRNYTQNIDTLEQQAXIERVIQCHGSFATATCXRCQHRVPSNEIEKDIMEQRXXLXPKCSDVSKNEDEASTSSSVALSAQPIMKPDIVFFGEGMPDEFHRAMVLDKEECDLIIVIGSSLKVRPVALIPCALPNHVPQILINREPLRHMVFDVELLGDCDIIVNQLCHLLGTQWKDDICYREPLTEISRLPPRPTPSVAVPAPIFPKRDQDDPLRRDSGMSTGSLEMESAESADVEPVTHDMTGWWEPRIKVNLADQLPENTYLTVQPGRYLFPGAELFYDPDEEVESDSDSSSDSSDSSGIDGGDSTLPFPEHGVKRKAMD
Assay: fluorogenic acetylated-peptide deacetylase assay (Abcam ab156065)
Type: biochemical
Conditions: in vitro translated protein in reticulocyte lysate, lysate background subtracted; inhibitor concentration not told for this test; peptidase-coupled

NC(=O)C1CCCc2c1[nH]c1ccc(Cl)cc21 (stereo not shown) [Ex527]
inhibition of deacetylase activity: human recombinant Sirt1 as well as Daphnia Sir2 activity is significantly diminished by the inhibitor

— paper PMC4789591, “Involvement of Daphnia pulicaria Sir2 in regulating stress response and lifespan” (Aging (Albany NY), 2016)
